Four compounds from patent publication EP0800503B1, “NOVEL TRIENOIC RETINOID COMPOUNDS AND METHODS” (LIGAND PHARMACEUTICALS, INC., priority 1994, dated 1996) can be followed below.

A word on the Kd: it is the constant that tells how readily two partners part at equilibrium. One may read the IC80 as the point of the concentration-response curve where the effect stands at 80%. Read a low IC80 as an effect from little substance. In general, IC50 refers to the midpoint of a concentration-inhibition curve.

Read-outs that look alike come from different tables or passages of the source. Some results are limits rather than exact numbers.

Assay [1] deals with T1, RARα (Homo sapiens, UniProt P10276).
T1 sequence (P10276 1-462): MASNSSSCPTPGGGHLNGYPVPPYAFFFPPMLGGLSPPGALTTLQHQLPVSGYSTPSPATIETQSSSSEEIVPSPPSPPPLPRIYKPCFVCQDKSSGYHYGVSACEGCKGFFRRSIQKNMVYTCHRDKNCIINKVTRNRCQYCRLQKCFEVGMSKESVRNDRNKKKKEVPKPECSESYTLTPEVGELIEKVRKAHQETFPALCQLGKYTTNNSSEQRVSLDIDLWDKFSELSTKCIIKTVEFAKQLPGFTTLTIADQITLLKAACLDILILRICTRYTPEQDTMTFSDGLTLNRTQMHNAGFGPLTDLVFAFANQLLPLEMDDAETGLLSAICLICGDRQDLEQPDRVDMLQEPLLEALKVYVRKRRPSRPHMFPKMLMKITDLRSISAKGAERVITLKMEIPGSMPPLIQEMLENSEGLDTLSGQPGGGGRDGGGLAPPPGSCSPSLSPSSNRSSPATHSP
In words: Co-transfection assay. Format: cell-based. The conditions noted are these: read-out: RARα Pot.

The target in assay [2] is T2, RARβ (Homo sapiens, UniProt P10826).
T2 sequence (P10826 1-448 isoform P10826-2): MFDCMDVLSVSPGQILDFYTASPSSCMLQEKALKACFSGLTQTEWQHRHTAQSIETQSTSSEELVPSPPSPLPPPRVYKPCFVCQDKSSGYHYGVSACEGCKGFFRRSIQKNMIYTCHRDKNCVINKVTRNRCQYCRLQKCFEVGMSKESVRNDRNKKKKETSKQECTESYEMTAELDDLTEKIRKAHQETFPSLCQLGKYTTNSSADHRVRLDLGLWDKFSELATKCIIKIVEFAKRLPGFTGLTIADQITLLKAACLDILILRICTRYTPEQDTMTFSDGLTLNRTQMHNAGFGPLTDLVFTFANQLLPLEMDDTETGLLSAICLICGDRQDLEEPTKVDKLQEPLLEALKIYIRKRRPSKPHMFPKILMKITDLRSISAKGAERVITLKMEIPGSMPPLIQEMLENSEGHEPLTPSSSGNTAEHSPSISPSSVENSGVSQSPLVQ
In words: Co-transfection assay. Format: cell-based. As to conditions: read-out: RARβ Pot.

For a further assay, the target named is T3, RARγ (Homo sapiens, UniProt P13631).
T3 sequence (P13631 1-454): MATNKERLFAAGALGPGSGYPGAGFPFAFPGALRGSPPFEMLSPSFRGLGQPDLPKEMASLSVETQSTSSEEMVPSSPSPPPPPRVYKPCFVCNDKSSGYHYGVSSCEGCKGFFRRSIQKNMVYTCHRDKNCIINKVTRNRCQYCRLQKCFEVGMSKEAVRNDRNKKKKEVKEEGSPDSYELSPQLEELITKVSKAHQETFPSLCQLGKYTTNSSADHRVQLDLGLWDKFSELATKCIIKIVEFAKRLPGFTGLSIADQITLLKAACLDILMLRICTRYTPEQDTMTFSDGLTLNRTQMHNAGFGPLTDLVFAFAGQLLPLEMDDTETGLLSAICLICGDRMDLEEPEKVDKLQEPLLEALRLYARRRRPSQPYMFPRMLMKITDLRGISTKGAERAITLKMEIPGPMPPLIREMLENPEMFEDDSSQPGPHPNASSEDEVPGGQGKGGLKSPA
Kind of assay: Co-transfection assay. Format: cell-based. As to conditions: read-out: RARγ Pot.

For assay [3], the target named is T4, RXRα (Homo sapiens, UniProt P19793).
T4 sequence (P19793 1-462): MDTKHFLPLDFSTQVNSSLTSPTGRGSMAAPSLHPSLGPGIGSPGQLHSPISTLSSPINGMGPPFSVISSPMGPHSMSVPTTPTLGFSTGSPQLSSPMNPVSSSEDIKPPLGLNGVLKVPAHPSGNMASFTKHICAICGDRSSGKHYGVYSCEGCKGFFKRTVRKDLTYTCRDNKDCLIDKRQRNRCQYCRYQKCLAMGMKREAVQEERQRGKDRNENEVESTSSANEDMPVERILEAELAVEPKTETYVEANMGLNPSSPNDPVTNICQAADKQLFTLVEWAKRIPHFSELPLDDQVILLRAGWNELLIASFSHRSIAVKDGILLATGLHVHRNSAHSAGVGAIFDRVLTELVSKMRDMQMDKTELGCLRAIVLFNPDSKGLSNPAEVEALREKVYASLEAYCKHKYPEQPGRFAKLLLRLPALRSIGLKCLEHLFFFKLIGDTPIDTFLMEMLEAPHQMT
Kind of assay: Co-transfection assay. The class given is cell-based. The conditions noted are these: read-out: RXRα Pot.

In a further assay the target is T5, RXRβ (Mus musculus, UniProt P28704).
T5 sequence (P28704 1-520): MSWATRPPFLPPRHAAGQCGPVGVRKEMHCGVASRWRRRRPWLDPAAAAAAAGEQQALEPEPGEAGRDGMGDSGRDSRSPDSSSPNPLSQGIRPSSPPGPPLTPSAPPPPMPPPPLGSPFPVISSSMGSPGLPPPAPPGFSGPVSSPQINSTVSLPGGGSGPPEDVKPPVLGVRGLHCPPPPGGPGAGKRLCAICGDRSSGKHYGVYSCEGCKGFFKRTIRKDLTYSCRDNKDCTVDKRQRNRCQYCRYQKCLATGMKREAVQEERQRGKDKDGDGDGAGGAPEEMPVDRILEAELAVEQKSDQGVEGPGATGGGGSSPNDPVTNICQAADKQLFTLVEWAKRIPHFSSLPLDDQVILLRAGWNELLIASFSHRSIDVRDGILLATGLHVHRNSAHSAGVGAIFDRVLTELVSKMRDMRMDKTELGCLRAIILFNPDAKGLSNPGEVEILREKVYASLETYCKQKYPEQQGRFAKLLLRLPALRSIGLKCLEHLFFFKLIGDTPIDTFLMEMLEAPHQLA
In words: Co-transfection assay. Format: cell-based. The conditions noted are these: read-out: RXRβ Pot.

Assay [4] has as its target T6, RXRγ (Mus musculus, UniProt P28705).
T6 sequence (P28705 1-463): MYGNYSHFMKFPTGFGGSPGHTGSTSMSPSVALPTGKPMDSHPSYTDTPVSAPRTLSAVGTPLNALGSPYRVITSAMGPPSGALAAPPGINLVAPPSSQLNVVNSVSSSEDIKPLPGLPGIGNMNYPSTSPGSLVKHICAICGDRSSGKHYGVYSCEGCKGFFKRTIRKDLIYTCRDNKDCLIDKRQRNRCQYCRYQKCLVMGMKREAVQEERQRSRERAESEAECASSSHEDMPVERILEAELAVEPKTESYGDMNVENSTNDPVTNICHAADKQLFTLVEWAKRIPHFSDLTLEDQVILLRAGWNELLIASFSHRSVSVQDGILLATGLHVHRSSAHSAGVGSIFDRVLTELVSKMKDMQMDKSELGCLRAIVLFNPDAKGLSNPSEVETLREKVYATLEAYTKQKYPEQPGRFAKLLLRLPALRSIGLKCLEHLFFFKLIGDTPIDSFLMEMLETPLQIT
Kind of assay: Co-transfection assay. Format: cell-based. The conditions noted are these: read-out: RXRγ Pot.

The target in assay [5] is T1, RARα. In words: Receptor binding (competition with tritiated retinoids). The conditions noted are these: from IC50 by Cheng-Prussof equation.
Assay [6] concerns the target T4, RXRα. The assay is described as above. The conditions noted are these: from IC50 by Cheng-Prussof equation.
Another assay relates to TPA induction of ODC. In words: Ornithine decarboxylase (ODC) assay, inhibition of TPA induction of ODC. As to conditions: concentration required to inhibit the TPA induction of ODC by 80 percent. The class given is cell-based.
For assay [7], the system named is RPMI 8226 cell line. Kind of assay: Incorporation of 3H-thymidine. Format: cell-based. The conditions noted are these: Homo sapiens, 96 hours, radiolabeled thymidine incorporation, read-out: TdR IC50.
Assay [8] deals with RPMI 8226 cell line. In words: Viability (tetrazolium dye, MTS). Format: cell-based. As to conditions: Homo sapiens, 96 hours, mitochondrial function / viability.
Assay [9] relates to ME 180 cell line. In words: Incorporation of 3H-thymidine. Format: cell-based. As to conditions: Homo sapiens, 96 hours, radiolabeled thymidine incorporation, read-out: TdR IC50. For orientation: Dividing cells build labelled thymidine or BrdU into new DNA.
For assay [10], the system named is ME 180 cell line. Kind of assay: Viability (tetrazolium dye, MTS). As to conditions: Homo sapiens, 96 hours, mitochondrial function / viability. The class given is cell-based.
Assay [11] has as its system AML-193 cell line. Kind of assay: Viability (tetrazolium dye, MTS). Format: cell-based. As to conditions: Homo sapiens, 96 hours, mitochondrial function / viability.
The target in assay [12] is T7, RARβ (Homo sapiens, UniProt P10826).
T7 sequence (P10826 1-455): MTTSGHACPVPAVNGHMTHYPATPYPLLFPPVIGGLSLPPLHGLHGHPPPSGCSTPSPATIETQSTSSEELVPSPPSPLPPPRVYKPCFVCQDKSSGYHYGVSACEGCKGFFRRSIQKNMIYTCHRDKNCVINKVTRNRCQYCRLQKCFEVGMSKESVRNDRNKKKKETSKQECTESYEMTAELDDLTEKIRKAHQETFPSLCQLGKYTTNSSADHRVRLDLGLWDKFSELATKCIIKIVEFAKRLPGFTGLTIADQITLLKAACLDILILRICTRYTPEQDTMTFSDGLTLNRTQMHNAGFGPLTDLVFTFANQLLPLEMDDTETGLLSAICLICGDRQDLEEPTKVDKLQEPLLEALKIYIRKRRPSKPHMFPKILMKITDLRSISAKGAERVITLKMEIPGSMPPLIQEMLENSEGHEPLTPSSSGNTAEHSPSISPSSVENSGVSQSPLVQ
In words: biochemical.

The target of assay [13] is T6, RXRγ. In words: biochemical.
Assay [14] deals with AML-193 cell line. Kind of assay: Incorporation of 3H-thymidine. As to conditions: Homo sapiens, 96 h, read-out: TdR IC50 (nM).

With `COc1ccc(/C(C)=C/C=C/C(C)=C/C(=O)O)cc1OC` [A, (2E,4E,6E)-3-methyl-7-(3,4-dimethoxyphenyl)octa-2,4,6-trienoic acid, reference compound], the EC50 at RARα [1] was above 10000 nM; on RARβ [2], 1480 nM; on RARγ, above 10000 nM; on RXRα [3], above 10000 nM; on RXRβ, above 10000 nM; on RXRγ [4], above 10000 nM. At RARα [5], this compound showed a Kd of 312 nM.
Consider `CC(/C=C/C=C(\C)c1cc(C(C)(C)C)cc(C(C)(C)C)c1)=C\C(=O)O` [Compound 9, (2E, 4E, 6E)-7-(3,5-Di-t-butylphenyl)-3-methylocta-2,4,6-trienoic acid], for which the EC50 at RARα [1] (CV-1 cells, pRShRARα, D-MTV-LUC reporter, 40 hours, potency = EC50) is 4 nM; at RARβ [2] it was 1 nM; on RXRα [3] it was above 10000 nM; at RXRγ [4], above 10000 nM. In addition, the Kd at RARα [5] came to 1 nM; on RXRα [6], 270 nM; at RARβ [12], 2 nM; on RXRγ [13], 496 nM. For the same compound, it took 0.93 nM to reach the 80% level in the assay with TPA induction of ODC (IC80). Also, the half-inhibitory concentration (IC50) is 0.3 nM in the assay on RPMI 8226 cell line [7]; 253 nM in the assay with RPMI 8226 cell line [8]; 0.1 nM with ME 180 cell line [9]; 1.3 nM in the assay on ME 180 cell line [10]; 1000 nM with AML-193 cell line [11]; 0.1 nM in the assay on AML-193 cell line [14].
For `C/C(=C/C=C/C(C)=C/C(=O)O)c1cc(C(C)(C)C)cc(C(C)(C)C)c1` [Compound 10, (2E, 4E, 6Z)-7-(3,5-di-t-butylphenyl)-3-methylocta-2,4,6-trienoic acid], the EC50 at RARα [1] turned out to be 59 nM; on RARβ [2] it was 23 nM; on RXRα [3], 127 nM; on RXRγ [4] it was 56 nM. Moreover, the Kd came out at 59 nM on RARα [5], 4 nM on RXRα [6], 75 nM at RARβ [12] and 9 nM on RXRγ [13]. Besides, the IC80 in the assay with TPA induction of ODC came out at 6.62 nM. In addition, the IC50 with RPMI 8226 cell line [7] was found to be 60 nM; in the assay with RPMI 8226 cell line [8], 570 nM; in the assay on ME 180 cell line [9], 62 nM; in the assay on ME 180 cell line [10], 370 nM; with AML-193 cell line [11], 1000 nM; in the assay on AML-193 cell line [14], 0.01 nM.
The compound `C/C(=C\c1ccc(C(=O)O)cc1)c1ccc2c(c1)C(C)(C)CCC2(C)C` [TTNPB, (E)-4-[2-(5,6,7,8-tetrahydro-5,5,8,8-tetramethyl-2-napthalenyl)-1-propenyl]benzoic acid, reference compound] showed an IC80 in the assay on TPA induction of ODC of 0.09 nM. The IC50 with RPMI 8226 cell line [7] was 0.2 nM; in the assay with RPMI 8226 cell line [8], 10 nM; with ME 180 cell line [9], 0.4 nM; in the assay on ME 180 cell line [10], 187 nM; with AML-193 cell line [11], 1000 nM; in the assay with AML-193 cell line [14], 0.1 nM.
